Where a name gives a salt, the structure may show the parent alone.

In the assay the target is T1, cannabinoid 1 receptor (hCB1R) (Homo sapiens, UniProt P21554).
T1 construct: expressed in transfected cells; host or cells: HEK293
T1 sequence (P21554 whole entry): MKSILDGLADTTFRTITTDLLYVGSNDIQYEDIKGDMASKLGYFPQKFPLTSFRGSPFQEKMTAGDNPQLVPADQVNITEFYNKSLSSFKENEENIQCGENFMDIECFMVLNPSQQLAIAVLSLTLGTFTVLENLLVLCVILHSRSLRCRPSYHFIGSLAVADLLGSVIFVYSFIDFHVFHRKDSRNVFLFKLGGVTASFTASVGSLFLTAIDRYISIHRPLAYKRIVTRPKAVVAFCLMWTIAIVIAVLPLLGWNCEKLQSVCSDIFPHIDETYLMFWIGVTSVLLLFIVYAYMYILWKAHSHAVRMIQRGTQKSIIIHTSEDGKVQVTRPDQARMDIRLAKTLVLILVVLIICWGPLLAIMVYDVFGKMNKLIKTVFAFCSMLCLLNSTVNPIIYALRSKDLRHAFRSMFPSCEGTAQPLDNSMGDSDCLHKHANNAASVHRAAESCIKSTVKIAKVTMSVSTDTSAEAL
The assay is described as follows: In vitro functional assay with recombinant cells (FLIPR), CB1. Type of assay: cell-based. The settings on record: recombinant HEK293 cells expressing CB1 and G-protein; intracellular Ca2+ change after reference agonist, 20 min preincubation; read-out: hCB1R: FLIPR; IC50. Here is the method: In vitro functional assays with recombinant cells:
Function-testing assays were performed by means of the FLIPR technique (“Fluorometric Imaging Plate Reader”, Molecular Devices Corp.).
To this end, ligand-induced changes in the intracellular concentration of Ca^2+ in recombinant HEK293 cells, which expressed both a cannabinoid receptor (CB1 or CB2) and G-protein Galphal6, were determined. For the studies, cells were sown into 96-well microtiter plates (60 000 cells/well) and left to grow overnight. The medium was removed and the cells were incubated in buffer which contained the fluorescent dye Fluo-4. After this loading with dye, the cells were washed, test substance was added dissolved in buffer, the mixture was incubated for 20 minutes, a known cannabinoid receptor agonist as a reference agonist was added in buffer and, finally, the changes in the intracellular Ca^2+ concentration were measured in the FLIPR unit.
Results were presented as the percentage change relative to the control (0%: analogous experiment without test substance and without reference agonist, i.e. only with buffer; 100%: analogous experiment without test substance, but with reference agonist in excess), and used to calculate dose/action curves, and IC50 values were determined.
The values of the functional assay compared to the cannabinoid 1 receptor including illustrative selectivities compared to the cannabinoid 2 receptor can be taken from table 1 which follows.
In the case of `CC1(C)C(=O)N(c2ccc(C#N)c(C(F)(F)F)c2)C(=O)N1Cc1ccccc1NC(=O)Nc1ccc(C(N)=O)cc1` [Example 16, 4-(3-{2-[3-(4-Cyano-3-trifluoromethylphenyl)-5,5-dimethyl-2,4-dioxoimidazolidin-1-ylmethyl]phenyl}ureido)benzamide], the IC50 was found to be 0.012 µM.

Regarding `COC(=O)c1ccc(NC(=O)Nc2cc(F)ccc2CN2C(=O)N(c3ccc(C#N)c(C(F)(F)F)c3)C(=O)C2(C)C)cc1` [Example 17, Methyl 4-(3-{2-[3-(4-cyano-3-trifluoromethylphenyl)-5,5-dimethyl-2,4-dioxoimidazolidin-1-ylmethyl]-5-fluorophenyl}ureido)benzoate], the IC50 worked out at 0.01 µM.

Regarding `CC1(C)C(=O)N(c2ccc(C#N)c(C(F)(F)F)c2)C(=O)N1Cc1ccc(F)cc1NC(=O)Nc1ccc(S(C)(=O)=O)cc1` [Example 19, 1-{2-[3-(4-Cyano-3-trifluoromethylphenyl)-5,5-dimethyl-2,4-dioxoimidazolidin-1-ylmethyl]-5-fluorophenyl}-3-(4-methane-sulfonylphenyl)urea], the IC50 came to 0.009 µM.

As to `CC1(C)C(=O)N(c2ccc(C#N)c(C(F)(F)F)c2)C(=O)N1Cc1ccc(F)cc1NC(=O)Nc1ccc(Cl)nc1` [Example 20, 1-(6-chloropyridin-3-yl)-3-{2-[3-(4-cyano-3-trifluoromethylphenyl)-5,5-dimethyl-2,4-dioxoimidazolidin-1-ylmethyl]-5-fluorophenyl}urea], the IC50 is 0.016 µM.

For the compound `CC1(C)C(=O)N(c2ccc(C#N)c(C(F)(F)F)c2)C(=O)N1Cc1ccc(F)cc1NC(=O)Nc1ccc(S(N)(=O)=O)cc1` [Example 22, 4-(3-{2-[3-(4-Cyano-3-trifluoromethylphenyl)-5,5-dimethyl-2,4-dioxoimidazolidin-1-ylmethyl]-5-fluorophenyl}ureido)benzenesulfonamide], the IC50 amounted to 0.009 µM.

With `CC1(C)C(=O)N(c2ccc(F)c(C(F)(F)F)c2)C(=O)N1Cc1ccc(F)cc1NC(=O)Nc1ccc(S(=O)(=O)O)cc1` [Example 25, 4-(3-{5-fluoro-2-[3-(4-fluoro-3-trifluoromethylphenyl)-5,5-dimethyl-2,4-dioxoimidazolidin-1-ylmethyl]phenyl}ureido)benzenesulfonic acid], the IC50 came out at 0.058 µM.

With `CC1(C)C(=O)N(c2ccc(F)c(C(F)(F)F)c2)C(=O)N1Cc1ccc(F)cc1NC(=O)Nc1ccc(S(=O)(=O)O)cc1` [Example 26, Sodium salt of 4-(3-{5-fluoro-2-[3-(4-fluoro-3-trifluoromethylphenyl)-5,5-dimethyl-2,4-dioxoimidazolidin-1-ylmethyl]phenyl}ureido)benzenesulfonic acid], the IC50 turned out to be 0.066 µM.

In the case of `CC1(C)C(=O)N(c2ccc(F)c(C(F)(F)F)c2)C(=O)N1Cc1ccc(F)cc1NC(=O)Nc1ccc(S(C)(=O)=O)cc1` [Example 27, 1-{5-Fluoro-2-[3-(4-fluoro-3-trifluoromethylphenyl)-5,5-dimethyl-2,4-dioxoimidazolidin-1-ylmethyl]phenyl}-3-(4-methanesulfonylphenyl)urea], the IC50 worked out at 0.013 µM.

Regarding `CC1(C)C(=O)N(c2ccc(C#N)c(C3CC3)c2)C(=O)N1Cc1ccc(F)cc1NC(=O)Nc1ccc(S(N)(=O)=O)cc1` [Example 28, 4-(3-{2-[3-(4-Cyano-3-cyclopropylphenyl)-5,5-dimethyl-2,4-dioxoimidazolidin-1-ylmethyl]-5-fluorophenyl}ureido)benzenesulfonamide], the IC50 stood at 0.009 µM.

In the case of `CC1(C)C(=O)N(c2ccc(C#N)c(C3CC3)c2)C(=O)N1Cc1ccc(F)cc1NC(=O)Nc1ccc(S(=O)(=O)O)cc1` [Example 29, 4-(3-{2-[3-(4-cyano-3-cyclopropylphenyl)-5,5-dimethyl-2,4-dioxo-imidazolidin-1-ylmethyl]-5-fluorophenyl}ureido)benzenesulfonic acid], the IC50 is 0.069 µM.

For the origin of these results see patent publication US20110053947A1, “Arylchalcogenoarylalkyl-substituted imidazolidine-2,4-diones, process for preparation thereof, medicaments comprising these compounds and use thereof” (SANOFI-AVENTIS, priority 2008, published 2011).
